In patent US20100204145A1, “USE OF A PEPTIDE AS A THERAPEUTIC AGENT” (priority 2007, published 2010):
Ends that are not written are not given here.

Legend:
HIV-1IIIB = assay: HIV-1 antiviral assay in CEM-SS cells (MTS readout); type: cell-based; conditions: positive controls
RAW 264.7 cells = assay: Phagocytosis assay (Fluorescein-labeled Escherichia coli, flow cytometry); type: cell-based, Mouse; conditions: 10 micrograms per ml, combination peptide 1:peptide 2 1.10 mole:0.90 mole
Human A549 cells = assay: Apoptosis prevention assay (C2 ceramide, Annexin-5); type: cell-based; conditions: 10 micrograms per ml, 30 min pretreatment, then C2 ceramide
[1] = test system: Tumor Necrosis Factor-α (TNF-α); assay: Th1/Th2 cytokine profiling assay, TNF-α; type: cell-based; conditions: 10 micrograms per ml; Ovalbumin-restimulated spleen cells of immunized Balb/c mice; 72 hours
Description: (§1) The Balb/c mice (originated in 1923, it is a popular strain and is used in many different research disciplines. Also classified as an inbred from the production of 20 or more successive brother-sister matings, the Balb/c mouse is albino and small in size) were immunized on Days 1, 15, and 29 with Ovalbumin (Ovalbumin is the main protein found in egg white, commonly used to stimulate an immunological reaction in test animals) in PBS (5 micrograms/injection). On day 50, spleens of the mice were harvested (3 weeks after last boost with Ovalbumin). […] Thereafter, additional Ovalbumin was added to the cells at 10 micrograms/ml for in vitro restimulation of the cells. 72 hours later, cell supernatants were harvested and assayed using the Becton Dickinson Mouse Th1/Th2 Cytokine CBA Kit.

Interferon-γ (IFN-γ) = assay: Th1/Th2 cytokine profiling assay, IFN-γ; type: cell-based; conditions: 10 micrograms per ml; Ovalbumin-restimulated spleen cells of immunized Balb/c mice; 72 hours
Description: as §1

Interleukin-2 (IL-2) = assay: Th1/Th2 cytokine profiling assay, IL-2; type: cell-based; conditions: 10 micrograms per ml; Ovalbumin-restimulated spleen cells of immunized Balb/c mice; 72 hours
Description: (§2) The Balb/c mice (originated in 1923, it is a popular strain and is used in many different research disciplines. Also classified as an inbred from the production of 20 or more successive brother-sister matings, the Balb/c mouse is albino and small in size) were immunized on Days 1, 15, and 29 with Ovalbumin (Ovalbumin is the main protein found in egg white, commonly used to stimulate an immunological reaction in test animals) in PBS (5 micrograms/injection). On day 50, spleens of the mice were harvested (3 weeks after last boost with Ovalbumin). […] Thereafter, additional Ovalbumin was added to the cells at 10 micrograms/ml for in vitro restimulation of the cells. 72 hours later, cell supernatants were harvested and assayed using the Becton Dickinson Mouse Th1/Th2 Cytokine CBA Kit. This kit can be used to measure Interleukin-2 (IL-2), Interleukin-4 (IL-4), Interleukin-5 (IL-5), Interferon-γ (IFN-γ), and Tumor Necrosis Factor-α (TNF-α) protein levels in a single sample. The kit performance has been optimized for analysis of physiologically relevant concentrations (μg/ml levels) of specific cytokine proteins in tissue culture supernatants and serum samples.

Interleukin-4 (IL-4) = assay: Th1/Th2 cytokine profiling assay, IL-4; type: cell-based; conditions: 10 micrograms per ml; Ovalbumin-restimulated spleen cells of immunized Balb/c mice; 72 hours
Description: as §2

Interleukin-5 (IL-5) = assay: Th1/Th2 cytokine profiling assay, IL-5; type: cell-based; conditions: 10 micrograms per ml; Ovalbumin-restimulated spleen cells of immunized Balb/c mice; 72 hours
Description: as §2

Molecule | antiviral activity of positive control compounds (HIV-1) (HIV-1IIIB) | increase on the phagocytic activity of murine macrophages (RAW 264.7 cells) [%] | prevention (reduction) of ceramide-induced apoptosis on human lung cells (Human A549 cells) [%] | TNF-a spleen cells; TH1 response (% of control) [1] | IFNγ spleen cells; TH1 response (% of control) (Interferon-γ (IFN-γ)) | IL-2 spleen cells (% of control) (Interleukin-2 (IL-2)) | IL-4 spleen cells; TH2 response (% of control) (Interleukin-4 (IL-4)) | IL-5 spleen cells; TH2 response (% of control) (Interleukin-5 (IL-5))
CC(C)(C)NC(=O)[C@@H]1CN(Cc2cccnc2)CCN1C[C@@H](O)C[C@@H](Cc1ccccc1)C(=O)N[C@H]1c2ccccc2C[C@H]1O [indinavir] | expected levels of antiviral activity | – | – | – | – | – | – | –
CCNC(=O)[C@@H]1CCCN1C(=O)[C@H](CCCNC(=N)N)NC(=O)[C@H](CC(C)C)NC(=O)[C@@H](COC(C)(C)C)NC(=O)[C@H](Cc1ccc(O)cc1)NC(=O)[C@H](CO)NC(=O)[C@H](Cc1c[nH]c2ccccc12)NC(=O)[C@H](Cc1cnc[nH]1)NC(=O)[C@@H]1CCC(=O)N1 [peptide 1, Pyr-His-Trp-Ser-Tyr-D-Ser(tBu)-Leu-Arg-Pro-NHEt] | – | 31.4 | 26.4 | 121.2 % of control | 76.6 % of control | 175.3 % of control | 131.6 % of control | 80.4 % of control
Tyr-Gly-Gly-Phe-Leu-Arg-Arg-OH (YGGFLRR-OH) [peptide 2] | – | 25.7 | 11.5 | 90.3 % of control | 126.8 % of control | 93.8 % of control | 81.2 % of control | 66.0 % of control
Cc1cn([C@H]2C[C@H](N=[N+]=[N-])[C@@H](CO)O2)c(=O)[nH]c1=O [AZT] | expected levels of antiviral activity | – | – | – | – | – | – | –
